One series has as its system glioma cell line A-172. As to the kind of experiment: Cell-mediated cytotoxicity (CARE-LASS) assay, LAK effector cells on A-172 target cells. The conditions noted are these: Seq. Id. No. 30 5 microM. The series is classed as cell-based. The protocol: (§1) Cell-mediated cytotoxicity was quantified by the CARE-LASS assay (Lichtenfels et al. 1994) using the NSCLC (non small cell lung carcinoma cell) line NCI-H661, the glioma cell line A-172, and the pancreatic cancer cell line Hup-T3 as target cells. NCI-H661 cells were pretreated with 5 μM TGF (transforming growth factor)-beta 1 specific antisense phosphorothioate oligodeoxynucleotide (PTO) Seq. Id. No. 14. A-172 and Hup-T3 cells were pretreated with 5 μM TGF-beta 2 specific antisense phosphorothioate oligodeoxynucleotide Seq. Id. No. 30 in medium at 5% CO2 and 37° C. for 3 days according to the cell line suppliers' instructions. Additionally, for Hup-T3 cells 3 μg/ml Lipofectin® were used to enhance cellular uptake of the PTO. Untreated cells and cells treated with 3 μg/ml Lipofectin® were used as controls.
Lymphokine activated killer cells (LAK cells) were used as effector cells. LAK cells were generated by a 3 day pretreatment of 5×10^6 PBMC from healthy volunteers with 10 ng/ml rh IL-2 (recombinant human interleukin 2) in 4 ml RPMI 1640 medium supplemented with 10% fetal calf serum at 5% CO2 and 37° C. One part of the effector cells was incubated additionally with rh TGF-[…] to mimic the presence of tumor cells ([…] rh TGF-[…]1 for NCI-H661, […] rh TGF-[…]2 for A-172 and Hup-T3). The other part of cells was incubated without additional treatment.
Effector cells were incubated with the target cells with and without cytostatic drugs for 4 h. The supraaditive effect respectively the inhibition was calculated by subtracting the specific cell lysis, of the control from the specific cell lysis of the chemotherapeutic agent. Taking into account the sign this difference is summed up with the specific lysis of the inhibitor of TGF-beta, as depicted in the figures. In case the specific lysis of the combination of a chemotherapeutic agent with the TGF-beta inhibitor was higher than this sum, this was interpreted as supraaditive effect. In case the specific lysis of this combination was smaller than the sum this was interpreted as inhibition.

The subject of series [1] is pancreatic cancer cell line Hup-T3. As to the kind of experiment: Cell-mediated cytotoxicity (CARE-LASS) assay, LAK effector cells on Hup-T3 target cells. The conditions noted are these: FIG. 6; effector:target 10:1; Seq. Id. No. 30 5 microM; gemzar 20 μg/ml. Format: cell-based. The protocol: Cell-mediated cytotoxicity was quantified by the […] assay (Lichtenfels et al. 1994) using the NSCLC (non small cell lung carcinoma cell) line NCI-H661, the glioma cell line A-172, and the pancreatic cancer cell line Hup-T3 as target cells. […] Id. No. 14. […] Id. […] Additionally, for Hup-T3 cells 3 μg/ml Lipofectin® were used to enhance cellular uptake of the PTO. Untreated cells and cells treated with 3 μg/ml Lipofectin® were used as controls. Lymphokine activated killer cells (LAK cells) were used as effector cells. […] The other part of cells was incubated without additional treatment. Effector cells were incubated with the target cells with and without cytostatic drugs for 4 h. The supraaditive effect respectively the inhibition was calculated by subtracting the specific cell lysis, of the control from the specific cell lysis of the chemotherapeutic agent. Taking into account the sign this difference is summed up with the specific lysis of the inhibitor of TGF-beta, as depicted in the figures. In case the specific lysis of the combination of a chemotherapeutic agent with the TGF-beta inhibitor was higher than this sum, this was interpreted as supraaditive effect. In case the specific lysis of this combination was smaller than the sum this was interpreted as inhibition.

Series [2] concerns NSCLC (non small cell lung carcinoma cell) line NCI-H661. Put plainly: Cell-mediated cytotoxicity (CARE-LASS) assay, LAK effector cells on NCI-H661 target cells. Format: cell-based. The following applies: FIG. 9; effector:target 1.25:1; Seq. Id. No. 14 5 microM; taxotere 0.37 μg/ml. How it is done:
as §1
Lymphokine activated killer cells (LAK cells) were used as effector cells. LAK cells were generated by a 3 day pretreatment of 5×10^6 PBMC from healthy volunteers with 10 ng/ml rh IL-2 (recombinant human interleukin 2) in 4 ml RPMI 1640 medium supplemented with 10% fetal calf serum at 5% CO2 and 37° C. […]
Effector cells were incubated with the target cells with and without cytostatic drugs for 4 h. The supraaditive effect respectively the inhibition was calculated by subtracting the specific cell lysis, of the control from the specific cell lysis of the chemotherapeutic agent. […]

The subject of series [3] is anaplastic astrocytoma, WHO grade III. As to the kind of experiment: Clinical phase I/II study, intratumoral Seq. Id. No. 30 in patients with anaplastic astrocytoma. The series is classed as in vivo, human. An excerpt: (§2) Clinical studies represented herein were primarily designed as safety studies and were approved by the local ethic committees and performed in accordance with the current international declaration of Helsinki for human experimentation and GCP and had to sign a written informed consent prior to recruitment.
(§3) The treatment with the antineoplastic agent followed routine schedules if nothing else is mentioned. Before the treatment with an TGF-beta antagonist, the antisense oligonucleotide of TGF-beta, with Seq. No. 30 the patients were selected according to the following criteria.
(§4) Patients had high grade gliom, either anaplastic astrocytome, WHO grade III, or glioblastoma, WHO grade IV, refractory to or recurrent after standard therapy (surgery, radiotherapy and different therapies with antineoplastic substances). Patients had not received antineoplastic agents within 10 days prior to the administration of the antagonist. Patients were between 18 and 75 years old. Karnofsky performance status (KPS) was at least 70%. Patients with clinically significant acute infections, cardiovascular abnormalities or poorly controlled seizures and pregnant and lactating females were excluded.
(§5) Surgical planning was based on computer tomography or magnetic resonance images. The perforated part of the catheter was placed in the solid, enhancing area of the tumor. Ventricles, cysts, resection cavities from prior surgical interventions, blood vessels and eloquent brain areas had to be avoided by the catheter trajectory. The catheter was introduced through a standard burr hole into the center of the largest tumor lesion. The distal end of the catheter was passed several centimetres under the galea through the skin and filled with saline. TGF-beta 2 specific antisense oligonucleotide with Seq. Id. No. 30 was administered intratumorally as a continuous high-flow microperfusion using an external pump system, Graseby 3200 (Smith Medical, London, GBM). The application system was removed after the end of the infusion. For safety assessment patients were followed up for 28 days. Post-study MRI and survival data until death were collected by the investigators.
Comparison of survival data of patients treated with antineoplastic agents in combination with antagonists of factors negatively influencing the immune system (here: an antisense oligonucleotide of TGF-beta with the sequence Id. No. 30) to literature data for treatment with antineoplastic alone. Survival time is given from start of first chemotherapy after tumor recurrence. Median overall survival time of all patients treated with antineoplastic agents and TGF-beta 2 specific antisense oligonucleotide with Seq. Id. No. 30 (anaplastic astrocytom: 8 patients, glioblastoma, 23 patients) are compared to the most current literature data (Theodosopoulos, P. V. et al. 2001).
Reduction of tumor volumes of patients 04 and 17 was more than 80%. Tumor volume was assessed by measurement of the largest cross-sectional diameter of the enhancing lesion in the first layer and the largest cross-sectional diameter perpendicular to the first in the same plane and layer. For the third dimension, the largest cross-sectional diameter of all further planes perpendicular to the first one was determined.

For series [4], the system named is glioblastoma, WHO grade IV. As to the kind of experiment: Clinical phase I/II study, intratumoral Seq. Id. No. 30 in patients with glioblastoma. The series is classed as in vivo, human.
Excerpt: as §2, §3, §4
as §5, with “Post-study MRI and survival data until death were collected by the investigators.” left out

[5] abbreviates: FIG. 4, effector:target 20:1, BCNU 4 μM.
The mark [6] stands for this setting: FIG. 5, effector:target 1.25:1, CCNU 10 μM.
Where [7] appears, read: FIG. 10, effector:target 5:1, procarbacine 3 nmol/ml.
Where [8] appears, read: FIG. 7, effector:target 10:1, temozolomide 50 μM.
[9] abbreviates: FIG. 8, effector:target 2.5:1, vincristine 0.04 μmol/ml.
Setting [10] is: calculated after start of chemotherapy, patients treated with antineoplastic agents and Seq. Id. No. 30.
The mark [11] stands for this setting: oligonucleotide following chemotherapy (mainly temozolomide).

`O=NN(CCCl)C(=O)NCCCl` [BCNU, N,N′-bis(2-chlorethyl)-N-nitroso-urea, reference compound]: the “specific lysis of tumor cells” value in the series on glioma cell line A-172 (setting [5]) worked out at 15.6%.

As for `O=NN(CCCl)C(=O)NC1CCCCC1` [CCNU, 1-(2-Chloroethyl)-3-cyclohexyl-1-nitrosourea, reference compound], the “specific lysis of tumor cells” value in the series with glioma cell line A-172 (setting [6]) stood at 0.5%.

Regarding `Nc1ccn([C@@H]2O[C@H](CO)[C@@H](O)C2(F)F)c(=O)n1` [gemzar, reference compound], in series [1], the “specific lysis of tumor cells” value is 34.5%.

For `CNNCc1ccc(C(=O)NC(C)C)cc1` [procarbacine, reference compound], the “specific lysis of tumor cells” value in the series on glioma cell line A-172 (setting [7]) is 6.1%.

With `CC(=O)O[C@@]12CO[C@@H]1C[C@H](O)[C@@]1(C)C(=O)[C@H](O)C3=C(C)[C@@H](OC(=O)[C@H](O)[C@@H](NC(=O)OC(C)(C)C)c4ccccc4)C[C@@](O)([C@@H](OC(=O)c4ccccc4)[C@H]21)C3(C)C` [taxotere, reference compound], the “specific lysis of tumor cells” value in series [2] is 30.5%.

On to `Cn1nnc2c(C(N)=O)ncn2c1=O` [temozolomide, 3,4-dihydro-3-methyl-4-oxoimidazo->5,1d′1,2,3,4-tetrazin-8-carboximide, reference compound], for which, in the series with glioma cell line A-172 (setting [8]), the “specific lysis of tumor cells” value is reported as 31.3%.

With `CC[C@]1(O)C[C@H]2CN(CCc3c([nH]c4ccccc34)[C@@](C(=O)OC)(c3cc4c(cc3OC)N(C=O)[C@H]3[C@@](O)(C(=O)OC)[C@H](OC(C)=O)[C@]5(CC)C=CCN6CC[C@]43[C@@H]65)C2)C1` [vincristine, reference compound], the “specific lysis of tumor cells” value with glioma cell line A-172 (setting [9]) is 12.6%.

As for CGGCATGTCTATTTTGTA [Seq. Id. No. 30], the “specific lysis of tumor cells” value in the series on glioma cell line A-172 (setting [5]) is given as 29.4%; with glioma cell line A-172 (setting [6]), 4.4%; in the series on glioma cell line A-172 (setting [8]), 39.2%; in the series with glioma cell line A-172 (setting [9]), 13.9%; in series [1] it was 59.5%. The tumor response result in series [3] (1. Example, one patient, 21 months after first application, assessed by 3 independent specialists) is reported as “complete response”. The “overall survival after first recurrence” value in series [3] (1. Example, one patient, one cycle 10 μM, 4 μL/min, 1.42 mg in 4 days intratumorally after ACNU/tenoposide, temozolomide, Caelyx) amounted to 195 weeks. In series [3] (1. Example, one patient, one cycle intratumorally after prior chemotherapy), the “overall survival after diagnosis of anaplastic astrocytoma” value came out at 208 weeks. In addition, the tumor reduction in series [3] (2. Example, one patient, magnetic resonance image 19.4 months after start of oligonucleotide treatment, central reading, partial response) was 83%. Moreover, the “median overall survival time” value in series [3] (FIG. 3, Seq. Id. No. 30 following temozolomide, from start of first chemotherapy after tumor recurrence, 3 patients) worked out at 146.6 weeks; in series [4] (FIG. 3, Seq. Id. No. 30 following temozolomide, from start of first chemotherapy after tumor recurrence, 10 patients), 45.1 weeks. For the same molecule, the mean overall survival in series [3] (all anaplastic astrocytoma patients) was found to be 90 weeks; in series [3] (combination of Seq. Id. No. 30 and at least one further antineoplastic agent (e.g. temozolomide)), 146.6 weeks. For the same molecule, the “median overall survival in our study” value in series [3] (setting [10]) is listed as 147 weeks; in series [4] (setting [10]) it was 42.4 weeks. In addition, the “median overall survival times” value is on record as “about 147 weeks” in series [3] (setting [11]) and 45 weeks in series [4] (setting [11]). For the same molecule, in series [3] (patients 04 and 17), the “Reduction of tumor volumes” value was “more than 80%”.

For the molecule “CTGATGTGTTGAAGAACA (chemistry not given here) [Seq. Id. No. 14]”, the “specific lysis of tumor cells” value with glioma cell line A-172 (setting [7]) was 16.4%; in series [2] it was 65.3%.

Source of the values: patent US20100160208A1, “Pharmaceutical composition” (Antisense Pharma GmbH, priority 2003, published 2010).
